In patent publication US12606553B2, “Crystalline forms, compositions containing same, and methods of their use” (FOGHORN THERAPEUTICS INC., priority 2021, dated 2026):

Assays:
Assay type in all cases: physicochemical
[1] = Dynamic vapor sorption (DVS), with XRPD on the post-DVS sample; settings: for DVS weight increase during exposure to 80% RH: 25° C., humidity ramped 0 to 95% RH, value at 80% RH; for structural change by XRPD after DVS (exposure to high humidity): XRPD on post-DVS sample; for hygroscopicity classification from DVS: based on weight increase up to 80% RH
Procedure: Dynamic vapor sorption (DVS) was carried out using the TA Instruments Q5000 SA. A predefined amount of the sample, 2.0 to 10.0 mg, was placed in a platinum pan. The sample was allowed to equilibrate at 50° C. at 0% RH for a period of 60 minutes. The sample was then equilibrated at 25° C. before ramping the humidity from 0 to 95% RH at 5% increments every hour. A similar ramp profile was used for desorption cycle. XRPD analysis was also performed on post DVS sample.

[2] = Temperature cycled single solvent slurry screen
Procedure: Magnetic stirrers were added to vials, and the suspensions were cycled between 50° C. and 5° C. for three cycles with agitation. Solid samples generated were analyzed via XRPD to assess crystallinity and crystal structure. […] Solid samples were obtained from slurries in all other solvents screened.

[3] = Binary solvent slurry screen; settings: room temperature
Procedure: Solvent combinations were selected based on solvent properties, functionality, and miscibility. […] Magnetic stirrers were added to vials, and the suspensions were allowed to stir at room temperature for 5 days.

[4] = Single solvent slurry screen
Procedure: Magnetic stirrers were added to vials, and the suspensions were allowed to stir at room temperature for 4 days. Solid samples generated were analyzed via XRPD to assess crystallinity and crystal structure.

[5] = Thermal gravimetric analysis (TGA) and DSC: thermal degradation; settings: heated at 10° C./minute under nitrogen
Procedure: (§1) DSC data was collected on a TA Instruments Q2000 DSC. A predefined amount of the sample, 2.0 to 10.0 mg, was placed in an aluminum pan and heated at 5° C./minute from 25° C. to 220° C. A purge of dry nitrogen at 100 mL/minute was maintained over the sample. The instrument control and data acquisition are acquired using Q Advantage software release version 5.5.23. The data was processed and presented using the TA Universal Analysis 2000 software version 4.5A build 4.5.0.5.
as §1, with “TGA” for “DSC”, “Q5000 TGA.” for “Q2000 DSC.”, “10°” for “5°”, “40°” for “25°”, “300° C., or varied as experimentation dictated.” for “220° C.”, “25” for “100”

[6] = Evaporative salt and co-crystal screen (1H NMR, HPLC); settings: combined with sodium hydroxide and potassium hydroxide
[7] = Competitive suspension equilibration study; settings: room temperature and 60° C.
Procedure: A competitive suspension equilibration study was carried out to identify the relative stability of the two crystalline forms of the compound of formula (I) in aqueous and organic solvent systems. Competitive suspension equilibration experiments were conducted in ethyl acetate, 50% methanol/water (v/v) and 50% acetonitrile/water (v/v) at room temperature and 60° C. […] Further crystalline forms of the compound of formula (I) (e.g., the first and second crystalline forms of the compound of formula (I)) were added for conversion material and to act as seeds. Each suspension was allowed to stir for 7 or 14 days, and were analyzed via XRPD to determine which form the solids had converted to.

| DVS weight increase during exposure to 80% RH [1] | structural change by XRPD after DVS (exposure to high humidity) [1] | hygroscopicity classification from DVS [1] | crystal structure after slurry (XRPD), form stability ([2]; single solvents except THF, cycled between 50° C. and 5° C. for three cycles) | solubility in THF ([2]; temperature cycled slurry) | crystal structure after slurry (XRPD), form stability ([3]; 50/50 (v/v) solvent mixtures except methanol/THF, 5 days) | solubility in methanol/THF ([3]; 50/50 (v/v)) | solubility in THF ([4]; room temperature slurry) | crystal structure after slurry (XRPD), form stability ([4]; single solvents except THF, stirred at room temperature for 4 days) | molecular degradation temperature (TGA/DSC), degradation from [5] | molecular degradation onset (TGA/DSC) [5] | chemical stability in a basic environment (1H NMR, HPLC) [6] | SMILES | form conversion of mixed first and second crystalline forms (XRPD) ([7]; aqueous solvents (methanol/water 14 days, acetonitrile/water 7 days)) | form conversion of mixed first and second crystalline forms (XRPD) ([7]; ethyl acetate, methanol, acetonitrile, within seven days) |
| --- | --- | --- | --- | --- | --- | --- | --- | --- | --- | --- | --- | --- | --- | --- |
| 0.04 % (w/w) | no structural changes occurred | non-hygroscopic | the same crystal structure | extremely high | the same crystal structure | high | extremely high | the same crystal structure | 240 °C | – | – | COC[C@H](NC(=O)c1ccn(S(C)(=O)=O)c1)C(=O)Nc1nc(-c2cccc(N3C[C@@H](C)O[C@@H](C)C3)n2)cs1 [second crystalline form of the compound of formula (I)] | – | – |
| 1.4 % (w/w) | no structural changes occurred | slightly hygroscopic | – | – | – | – | – | – | 220 °C | 254.3 °C | – | COC[C@H](NC(=O)c1ccn(S(C)(=O)=O)c1)C(=O)Nc1nc(-c2cccc(N3C[C@@H](C)O[C@@H](C)C3)n2)cs1 [first crystalline form of the compound of formula (I)] | – | – |
| – | – | – | – | – | – | – | – | – | – | – | molecular degradation was visible | COC[C@H](NC(=O)c1ccn(S(C)(=O)=O)c1)C(=O)Nc1nc(-c2cccc(N3C[C@@H](C)O[C@@H](C)C3)n2)cs1 [compound of formula (I)] | did not result in the conversion of either crystalline form to the other | fully converted to the second crystalline form |
